This is an account of results in patent US4730068A, “Tumor retarding (1,2-diphenyl-ethylenediamine)-platinum(II)-complexes” (Asta-Werke Aktiengesellschaft, priority 1985, dated 1988).

Data set [1] concerns DMBA-induced hormone dependent rat mammary carcinoma. Nature of the data set: DMBA-induced hormone dependent mammary carcinoma of the rat. In kind it is in vivo. The following applies: 3×6.5 mg/kg body weight/week. The protocol:
Mouse leukemia P388, hormone independent human breast cancer cell line MDA-MB 231, hormone dependent human breast cancer cell line MCF7, hormone dependent mouse mammary carcinoma MXT, DMBA induced hormone dependent rat mammary carcinoma (DMBA is dimethylbenz[a]-anthracene).
For example on the mammary cancer of the rat, which was induced by 7, 12-dimethylbenz [a]-anthracene (DMBA), with the compound of Example 18 at a dosage of 3×6.5 mg/kg body weight/week there was determined with 88% of the tumors a complete remission. In the testing on the hormone independent human mammary tumor cell line MDA-MB 231 the compounds of the invention show for example in vitro in concentrations between 10^-5 and 10^-7 moles/liter a 50% inhibition of the growth of this cell line. The inhibition of [^3 H]-thymidine incorporation is of the same order of magnitude. The compounds of the invention act on the lymphocytic leukemia P388 (mouse) for example in dosages between 10 and 50 mg/kg (intraperitoneal application).

Data set [2] is described as follows: water solubility. It counts as physicochemical.

Regarding `NC(c1c(Cl)cc(O)cc1Cl)C(N)c1c(Cl)cc(O)cc1Cl.[Cl-].[Cl-].[Pt+2]` (stereo not drawn) [Example 18, meso-1,2-bis(2,6-dichloro-4-hydroxyphenyl)-ethylenediamine-dichloro-platinum(II)], the “tumors with complete remission” value in data set [1] was determined as 88%.

As for “Diaquo-meso-1,2-bis(2,6-dichloro-4-hydroxyphenyl)-ethylene-diamine-platinum(II)-sulfate [Example 34]”, in data set [2], the solubility in water entry is listed as “soluble in water”.
